Measurements reported in article PMC4030805 (Analytical Chemistry, 2014).

Target: biotinylated Bcl-xL immobilized on streptavidin magnetic beads (Homo sapiens, UniProt Q07817)
Experiment: AMMP target-binding assay with in vitro translated peptides
Settings: concentration taken from the HA tag competition assay (Figure 3c)

Chain of biotinylated Bcl-xL immobilized on streptavidin magnetic beads (Q07817 1-209 limits assumed): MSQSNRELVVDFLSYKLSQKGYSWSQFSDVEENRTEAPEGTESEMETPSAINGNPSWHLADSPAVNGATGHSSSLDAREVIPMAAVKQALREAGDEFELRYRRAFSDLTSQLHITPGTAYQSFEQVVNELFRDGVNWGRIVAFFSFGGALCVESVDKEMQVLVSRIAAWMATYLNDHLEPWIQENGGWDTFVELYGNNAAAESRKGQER

H-MIETITIYKYKKAADHFSMSMGSGSGSYPYDVPDYA-NH2 [Pep1]
peptide concentration giving robust signal over background: 100 pM
